Measured values published in publication PMC3454376, “Salidroside Improves Behavioral and Histological Outcomes and Reduces Apoptosis via PI3K/Akt Signaling after Experimental Traumatic Brain Injury” (PLoS ONE, 2012).

Tested on: mice subjected to controlled cortical impact injury
Test: Beam walk test after CCI
Type: in vivo
Description: All animal procedures were approved by the Animal Research Committee at Cheng Hsin General Hospital (Animal permit number […] 101-08), and all procedures complied with the Guide for the Care and Use of Laboratory Animals published by the US National Institutes of Health (NIH Publication No. 85-23, revised 1996). Animals were housed under a 12-h light/dark cycle and at constant temperature (21-25°C) and humidity (45-50%). They were allowed free access to pellet chow and water. TBI in mice was induced by a CCI injury model as previously described. Briefly, 8-week-old male C57BL/6 mice (weighing 22-25 g) were anesthetized through the use of intraperitoneal injection of sodium pentobarbital (65 mg/kg; Rhone Merieux, Harlow, UK) and placed in a stereotaxic frame. A 5 mm craniotomy was performed over the right parietal cortex, centered on the coronal suture and 0.1 mm lateral to the sagittal suture, and injury to dura was avoided. […] Body temperature was monitored throughout the surgery by a rectal probe; temperature was maintained at 37.0±0.5°C using a heated pad. […] To determine the optimal dose of salidroside, a pilot study was performed using 2 different doses (20 and 50 mg/kg) administered 10 min after injury, and neurological deficits and tissue damage were evaluated as the main outcomes. […]

OC[C@H]1O[C@@H](OCCc2ccc(O)cc2)[C@H](O)[C@@H](O)[C@@H]1O [SALD, salidroside]
beam walk latency versus vehicle group (20 mg/kg ip 10 min after CCI, days 4 and 21, P<0.05 and 0.01): significant difference
beam walk latency, treatment effect versus vehicle (50 mg/kg ip 10 min after CCI, P<0.05): significant only at day 4
